Experiment [1] concerns the target GDP-bound NRAS wild-type protein (Homo sapiens, UniProt P01111). The experiment is described as follows: Binding to NRAS by surface plasmon resonance (SPR), Single Cycle Kinetics. To be noted: SPR; for NRAS/KRAS (ratio of KD value with respect to NRAS to KD value with respect to KRAS): GDP-bound NRAS wild-type vs GDP-bound KRAS wild-type. (In general: In SPR one partner is held on a chip, and binding of the other changes the refractive index at the surface.)

The target in experiment [2] is GDP-bound HRAS wild-type protein (Homo sapiens, UniProt P01112). The experiment is described as follows: Binding to HRAS by surface plasmon resonance (SPR), Single Cycle Kinetics. The conditions noted are these: SPR; for HRAS/KRAS (ratio of KD value with respect to HRAS to KD value with respect to KRAS): GDP-bound HRAS wild-type vs GDP-bound KRAS wild-type.

Where a SMILES comes first, the peptide text is derived from it. Bridges are numbered along the chain shown (N, C = ends). [ ]: non-standard residue; d: D form. The star is where a group is joined. hPhe(3-Cl-4-CF3) = N[C@@H](CCc1ccc(C(F)(F)F)c(Cl)c1)C(=O)O; NPrPhe(4-CF3) = CCCN[C@@H](Cc1ccc(C(F)(F)F)cc1)C(=O)O; NMeGly(cPent) = CN[C@H](C(=O)O)C1CCCC1; Pro(4,4-F2) = O=C(O)[C@@H]1CC(F)(F)CN1; Hyp = O=C(O)[C@@H]1C[C@@H](O)CN1; NMeD = CN[C@@H](CC(=O)O)C(=O)O; NMeL = CN[C@@H](CC(C)C)C(=O)O; Morpholide = C1CN(*)CCO1; Ac5c = NC1(C(=O)O)CCCC1; Aze = O=C(O)[C@@H]1CCN1; Ac4c = NC1(C(=O)O)CCC1; Sar = CNCC(=O)O

Chain of GDP-bound HRAS wild-type protein (P01112 whole entry): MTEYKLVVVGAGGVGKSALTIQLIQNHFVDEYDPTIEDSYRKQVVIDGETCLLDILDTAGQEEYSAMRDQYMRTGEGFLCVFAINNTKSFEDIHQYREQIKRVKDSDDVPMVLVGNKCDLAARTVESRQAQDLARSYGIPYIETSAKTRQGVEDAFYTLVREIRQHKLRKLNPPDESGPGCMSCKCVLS
Chain of GDP-bound NRAS wild-type protein (P01111 whole entry): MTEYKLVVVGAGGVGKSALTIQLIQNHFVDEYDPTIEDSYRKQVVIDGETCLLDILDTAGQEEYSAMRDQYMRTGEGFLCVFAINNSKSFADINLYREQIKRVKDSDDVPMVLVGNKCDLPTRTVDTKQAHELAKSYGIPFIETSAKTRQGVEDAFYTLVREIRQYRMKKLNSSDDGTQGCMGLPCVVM

For the compound `CCCN1C(=O)CN(C)C(=O)CNC(=O)[C@H]([C@@H](C)CC)NC(=O)[C@H](CC(C)C)N(C)C(=O)C[C@@H](C(=O)N2CCOCC2)N(C)C(=O)[C@H](C2CCCC2)N(C)C(=O)C2(CCCC2)NC(=O)[C@@H]2C[C@@H](OCC)CN2C(=O)[C@H](CCc2ccc(C(F)(F)F)c(Cl)c2)NC(=O)CN(C)C(=O)[C@@H]1Cc1ccc(C(F)(F)F)cc1` [PP0396] ([NMeL]IG[Sar][NPrPhe(4-CF3)][Sar][hPhe(3-Cl-4-CF3)][Hyp](Et)[Ac5c][NMeGly(cPent)][NMeD]-Morpholide; lactam N-11), in experiment [1] (KD ratio NRAS/KRAS), the “NRAS/KRAS (ratio of KD for GDP-bound NRAS wild-type to KD for KRAS)” value is “B (a compound having 3 or more and less than 10 is denoted as B)”. Besides, the “HRAS/KRAS (ratio of KD for GDP-bound HRAS wild-type to KD for KRAS)” value in experiment [2] (KD ratio HRAS/KRAS) was “C (A compound having a KD ratio of 0.1 or more and less than 3 is denoted as C)”.

Consider `CCO[C@@H]1C[C@H]2C(=O)N(C)C3(CCC3)C(=O)N(C)[C@@H](C(CC)CC)C(=O)N(C)[C@H](C(=O)N(C)C)CC(=O)N(C)[C@@H](COC)C(=O)N[C@@H]([C@@H](C)CC)C(=O)N(C)CC(=O)N(C)[C@H]3C/C=C\CCN(C3=O)[C@@H](CC3CCCCC3)C(=O)N(C)CC(=O)N[C@@H](CCc3ccc(C(F)(F)F)c(OC)c3)C(=O)N2C1` [PP2335], for which, in experiment [1], the “NRAS/KRAS (ratio of KD value with respect to NRAS to KD value with respect to KRAS)” value was “A (a compound having 10 or more and less than 20 is denoted as A)”. For the same compound, in experiment [2], the “HRAS/KRAS (ratio of KD value with respect to HRAS to KD value with respect to KRAS)” value is “A (a compound having 10 or more and less than 20 is denoted as A)”.

`CCO[C@@H]1C[C@H]2C(=O)NC3(CCC3)C(=O)N(C)[C@@H](C3CCCC3)C(=O)N(C)[C@H](C(=O)N(C)C)CC(=O)N(C)[C@@H](Cc3cccc(C)c3)C(=O)N[C@@H]([C@@H](C)CC)C(=O)N(C)CC(=O)N(C)[C@H]3CCCCCN(C3=O)[C@@H](Cc3ccc(C(F)(F)F)cc3)C(=O)N(C)CC(=O)N[C@@H](CCc3cc(F)c(C(F)(F)F)c(F)c3)C(=O)N2C1` [PP0942]: the “NRAS/KRAS (ratio of KD value with respect to NRAS to KD value with respect to KRAS)” value in experiment [1] (KD ratio) is “B (a compound having 3 or more and less than 10 is denoted as B)”. Besides, the “HRAS/KRAS (ratio of KD value with respect to HRAS to KD value with respect to KRAS)” value in experiment [2] (KD ratio) was “B (a compound having 3 or more and less than 10 is denoted as B)”.

As for `CCCN1C(=O)[C@@H]2CCN2C(=O)CN(C)C(=O)[C@H]([C@@H](C)CC)NC(=O)[C@H](CC(C)C)N(C)C(=O)C[C@@H](C(=O)N2CCOCC2)N(C)C(=O)[C@H](C2CCCC2)N(C)C(=O)C2(CCC2)NC(=O)[C@@H]2CC(F)(F)CN2C(=O)[C@H](CCc2ccc(C(F)(F)F)c(Cl)c2)NC(=O)CN(C)C(=O)[C@@H]1Cc1ccc(C(F)(F)F)cc1` [PP0409] ([NMeL]I[Sar][Aze][NPrPhe(4-CF3)][Sar][hPhe(3-Cl-4-CF3)][Pro(4,4-F2)][Ac4c][NMeGly(cPent)][NMeD]-Morpholide; lactam N-11), the “NRAS/KRAS (ratio of KD value with respect to GDP-bound NRAS wild-type protein to KD value with respect to KRAS)” value in experiment [1] (KD ratio NRAS/KRAS) is “C (A compound having a KD ratio of 0.1 or more and less than 3 is denoted as C)”. The “HRAS/KRAS (ratio of KD value with respect to GDP-bound HRAS wild-type protein to KD value with respect to KRAS)” value in experiment [2] (KD ratio HRAS/KRAS) was “C (A compound having a KD ratio of 0.1 or more and less than 3 is denoted as C)”.

`CCO[C@@H]1C[C@H]2C(=O)NC3(CCC3)C(=O)N(C)[C@@H](C3CCCC3)C(=O)N(C)[C@H](C(=O)N(C)C)CC(=O)N(C)[C@@H](CC3CCCC3)C(=O)N[C@@H]([C@@H](C)CC)C(=O)N(C)CC(=O)N(C)[C@H]3C/C=C\CCN(C3=O)[C@@H](Cc3ccc(C(F)(F)F)cc3)C(=O)N(C)CC(=O)N[C@@H](CCc3cc(F)c(C(F)(F)F)c(F)c3)C(=O)N2C1` [PP1112]: in experiment [1] (KD ratio), the “NRAS/KRAS (ratio of KD value with respect to NRAS to KD value with respect to KRAS)” value was “A (a compound having 10 or more and less than 20 is denoted as A)”. Further, the “HRAS/KRAS (ratio of KD value with respect to HRAS to KD value with respect to KRAS)” value in experiment [2] (KD ratio) was “B (a compound having 3 or more and less than 10 is denoted as B)”.

Regarding `CC[C@H](C)[C@@H]1NC(=O)[C@H](CC(C)C)N(C)C(=O)C[C@@H](C(=O)N2CCOCC2)N(C)C(=O)[C@H](C2CCCC2)N(C)C(=O)C2(CCCC2)NC(=O)[C@@H]2CCCN2C(=O)[C@H](CCc2ccc(C(F)(F)F)c(Cl)c2)NC(=O)CN(C)C(=O)[C@H](Cc2ccc(Cl)cc2)N2CCCCC[C@@H](C2=O)N(C)C(=O)CN(C)C1=O` [PP0613], in experiment [1] (KD ratio NRAS/KRAS), the “NRAS/KRAS (ratio of KD value with respect to GDP-bound NRAS wild-type protein to KD value with respect to KRAS)” value is “B (a compound having 3 or more and less than 10 is denoted as B)”. Also, the “HRAS/KRAS (ratio of KD value with respect to GDP-bound HRAS wild-type protein to KD value with respect to KRAS)” value in experiment [2] (KD ratio HRAS/KRAS) was “B (a compound having 3 or more and less than 10 is denoted as B)”.

`CCO[C@@H]1C[C@H]2C(=O)NC3(CC(C)(C)C3)C(=O)N(C)[C@@H](C(CC)CC)C(=O)N(C)[C@H](C(=O)N(C)C)CC(=O)N(C)[C@@H](CC3CCC3)C(=O)N[C@@H]([C@@H](C)CC)C(=O)N(C)CC(=O)N(C)[C@H]3C/C=C\CCN(C3=O)[C@@H](Cc3ccc(C(F)(F)F)cc3)C(=O)N(C)CC(=O)N[C@@H](CCc3ccc(C(F)(F)F)c(OC)c3)C(=O)N2C1` [PP2164]: the “NRAS/KRAS (ratio of KD value with respect to NRAS to KD value with respect to KRAS)” value in experiment [1] is “A (a compound having 10 or more and less than 20 is denoted as A)”. Further, in experiment [2], the “HRAS/KRAS (ratio of KD value with respect to HRAS to KD value with respect to KRAS)” value was “A (a compound having 10 or more and less than 20 is denoted as A)”.

The values are drawn from patent publication US20250230193A1, “CYCLIC COMPOUND HAVING SELECTIVE KRAS INHIBITORY EFFECT ON HRAS AND NRAS” (CHUGAI SEIYAKU KABUSHIKI KAISHA, priority 2022, published 2025).
